In US6867027B1, “RNA polymerase” (The Institute of Physical and Chemical Research, priority 1997, dated 2005):

Columns and labels:
Assay type in all cases: biochemical
[1] = Inhibition of [α-32P]UTP incorporation by 3′-dATP in the transcription reaction (3′-dNTP incorporation rate); details: compared with wild type T7 RNA polymerase
Description: Ribonucleotide (NTP) and 3′-deoxynucleotide (3′-dNTP) incorporation rates of the mutant T7 RNA polymerase purified in Example 7 were measured as follows.
pBluescript(KS+) plasmid (Stratagene) linearized by reaction with a restriction endonuclease, PvuII, was used as a template for the transcription reaction, and 250 μM each of ATP, CTP, GTP, and UTP, 2 mM of spermidine-(HCl)3, 5 mM of DTT, 40 mM Tris/HCl pH 8.0, 0.1 μl of [α-^32P] UTP (3000 Ci/mmole), and 25 units of the mutant T7 RNA polymerase F644Y/L665P/F667Y were also used for the reaction. For two kinds of reaction mixture (with or without 3′-dATP, final concentration was 100 μM), the reaction was performed at 37° C. for 60 minutes. The whole reaction mixture was spotted on DE81 paper (Whatman), washed three times with phosphate buffer, and dried. The DE81 paper was placed into a scintillation vial, and radioactivity was measured using a scintillation counter (Beckman) for each reaction. Degree of inhibition of the [α-^32P] UTP incorporation was calculated by comparing the values obtained with and without 3′-dATP based on the measured radioactivity. The relative activity obtained from calculated inhibition degree and defined as a relative value to the inhibition degree of the wild type T7 RNA polymerase normalized to 1.000 was shown in Table 1.
The inhibition degree was calculated by using the wild type T7 RNA polymerase, T7 RNA polymerase F644Y, L665P/F667Y obtained in Example 3, mutant T7 RNA polymerase F644Y/L665P, F782Y, F733Y, F646Y or Y639F constructed and purified in the same manner as in Examples 2 and 3 for the reaction instead of the above F644Y/L665P/F667Y mutant, and relative activities are shown in Table 1.
For example, it is meant that the mutant T7 RNA polymerase F644Y/L665P/F667Y is 5.58 times more likely to incorporate 31-dATP in comparison with the wild type enzyme.

[2] = In vitro transcription with a single dye terminator, sequence ladder analysed on ABI 377 (Example 4); details: for incorporation efficiency for 3′-dCTP derivatives / peak intensities of the sequence ladders: compared with wild type; for peak intensities of the sequence ladders: FIG. 14 and FIG. 15
Description: 3′ -DNTP incorporation efficiency of the purified mutant T7 RNA polymerases F644Y and L665P/F667Y was compared with that of wild type T7 RNA polymerase as follows. In vitro transcription reaction was performed by, for example, a partially modified version of the method of Melton, D. A, [Nucleic Acids Res., 12:7035-7056 (1984)]. More specifically, the reaction was performed in a total volume of 10 μl containing a plasmid vector pBluescriptKS(+) having T7 promoter (Stratagene) linearized by the reaction with a restriction endonuclease PvuII or ScaI as a template, 150 μM of 5-carboxy-X-rhodamine-labeled 3′-deoxycytidine-5′-triphosphate which was a dye terminator prepared according to the method described in WO96/14434 as a derivative of 3′-dNTP, 500 μM of GTP and UTP, 250 μM of ATP and CTP, 8 mM Of MgCl2, 2 mM of spermidine-(HCl)3, 5 mM of DTT, 40 mM of Tris/HCl pH 8.0 (BRL, Gibco) and 25 units of wild type T7 RNA polymerase (BRL, Gibco or Nippon Gene) or the mutant T7 RNA polymerase F644Y or L665P/F667Y at 37° C. for 1 hour. Then, to remove the unreacted dye terminator remained in the reaction product, the transcription product was purified by gel filtration using Sephadex G-50 column (Pharmacia Biotec), and the purification product was evaporated to dryness using a centrifugal evaporator.
(§1) The dried reaction product was dissolved in 6 μl of formamide/EDTA/Blue dextran loading buffer according to the instruction manual Ver. 1.0 of ABI PRISM 377 DNA Sequencing System available from Perkin-Elmer Japan, and 2 μl of the solution was analyzed by ABI 377 DNA Sequencer and an analysis program using denatured gel for sequencing analysis which contained 6M urea/4% Long Ranger™ acrylamide solution (FMC).
The peak intensities of the sequence ladders obtained by using F644Y and L665P/F667Y are shown in FIG. 14 and FIG. 15 with the peak intensity obtained by using wild type T7 RNA polymerase.

[3] = tested on: plasmid vector pBluescriptKS(+) having T7 promoter; experiment: Sequencing reaction by the dye terminator method, linearized pBluescriptKS(+) template (Example 5); details: four dye terminators; for sequence reading: 37° C., 1 hour, ABI 377; for peak intensity in sequencing reaction: in comparison with wild type T7 RNA polymerase
Description: Sequencing reaction by the dye terminator method was performed utilizing the purified mutant T7 RNA polymerases F644Y and L665P/F667Y, and the wild type T7 RNA polymerase as follows for comparison.
For the in vitro transcription reaction, the method of Melton, D. A. (1984, Nucleic Acids Res., 12:7035-7056) exemplified in Example 4 was used. More specifically, the reaction was performed in a total reaction volume of 10 μl containing a plasmid vector pBluescriptKS (+) having T7 promoter linearized by the reaction with a restriction endonuclease PvuII or ScaI as a template, 5-carboxyrhodamine 6G-labeled 3′-deoxyadenosine-5′-triphosphate, 5-carboxyrhodamine 110-labeled 3′-deoxyguanosine-5′-triphosphate, 5-carboxy-X-rhodamine-labeled 3′-deoxycytidine-5′-triphosphate, and 5-carboxytetramethylrhodamine-labeled 3′-deoxyuridine-5′triphosphate, which were dye terminators prepared according to the method described in W096/14434 as derivatives of 3′-DNTP, 500 μM of GTP and UTP, 250 μM of ATP and CTP, 8 mM of MgCl2, 2 mM of spermidine-(HCl)3, 5 mM of DTT, 40 mM of Tris/HCl pH 8.0 (BRL, Gibco) and 25 units of wild type T7 RNA polymerase (BRL, Gibco or Nippon Gene) or the mutant T7 RNA polymerase F644Y at 37° C. for 1 hour. Then, to remove the unreacted dye terminators remained in the reaction product, the transcription product was purified by gel filtration using Sephadex G-50 column (Pharmacia Biotec), and the purification product was evaporated to dryness using a centrifugal evaporator.
as §1

[4] = tested on: DNA containing T7 promoter; experiment: In vitro RNA synthesis activity (enzyme dilution method, plasmid containing T7 promoter as template); details: compared with wild type T7 RNA polymerase
Description: The T7 RNA polymerases introduced with mutations were purified, and their abilities of promoter sequence specific RNA synthesis and incorporation of ribonucleoside 5′-triphosphates including ATP, GTP, CTP, UTP and derivatives thereof, as well as 3′-dATP, 3′-dGTP, 3′-dCTP, 3′-dUTP and derivatives thereof were compared with those of wild type T7 RNA polymerase.
All of the mutant T7 RNA polymerases can be purified by principally the same method. The difference of mutation site may cause some difference in the expression level, and behavior in column chromatography. The purification method of mutant T7 RNA polymerase F644Y is exemplified hereinafter. The expression vector pT7RF644Y for F644Y was introduced into E. coli DH5∝, and the cells were cultured in a test tube containing LB culture medium containing antibiotic ampicillin. When the OD (600 nm) of the medium reached 0.4-0.6, isopropyl-β-thiogalactopyranoside (IPTG) was added to the culture to a final concentration of 0.4 mM, and the cultivation was further continued for additional 8 hours. Then, the E. coli cells were collected by centrifugation. Typically, 2 liters of culture medium affords 10 g of E. coli cells in wet weight. If the E. coli cells are not used immediately, they can be stored in a refrigerator at −20° C. Subsequent steps for purification of enzyme should be performed at a temperature lower than room temperature, preferably 0-5° C. unless otherwise indicated. The E. coli cells were washed with 10 times relative to the cell weight of a washing buffer (20 mM Tris-HCl, pH 8.1, 130 mM NaCl, 2 mM EDTANa2 at 25° C.), centrifuged again [5,000×g, 4° C., 10 minutes), suspended in 10 times in volume of a sonication buffer (50 mM Tris-HCl, pH 8.1, 100 mM NaCl, 0.1 mM EDTANa2, 5 mM dithiothreitol (DTT), 0.1 mM benzamidine, 30 μg/ml phenylmethylsulfonyl fluoride (PMSF), 10 μg/ml bacitracin], and sonicated by using Sonifier 450 (Branson) at 80W for more than 15 minutes to destroy the cells and reduce the viscosity of the cells. […]

Which “ability for incorporating 3′-dATP, 3′-dGTP, 3′-dCTP, 3′-dUTP and derivatives thereof” value (“ability for incorporating 3′-dATP” for short) [1] does the source give for “F644Y/F667Y: mutant T7 RNA polymerase with F644Y and F667Y mutations” here?
Its value is “almost equal to that of the F644Y/L665P/F667Y mutant”.

Which “ability for incorporating 3′-dATP” value [1] does the source give for “F644Y: T7 RNA polymerase in which F (phenylalanine) 644 was replaced with Y (tyrosine)” here?
The value was “markedly improved”.

What about the “length of transcription product confirmed” value ([2]; 150 μM dye terminator, 37° C., 1 hour) of the same substance?
The value was “about 700 bases”.

What about the “length of sequence ladder relative to that afforded by the wild type T7 RNA polymerase” value ([2]; 150 μM dye terminator, 37° C., 1 hour, gel image FIG. 13) of the same substance?
The value was 3 times.

What about the “incorporation efficiency for 3′-dCTP derivatives” value [2] of the same substance?
The value was “improved”.

And the “peak intensities of the sequence ladders” value [2]?
The value was “less fluctuation in comparison with the wild type, and the peak showed stronger signals”.

And the sequence reading [3]?
Its sequence reading is “possible”.

What about the “peak intensity in sequencing reaction” value [3] of the same substance?
The value was “higher peak intensity with less fluctuation”.

For “F667Y: T7 RNA polymerase in which F667 was replaced with Y”, which “ability for incorporating 3′-dATP” value [1] is on record?
Its value is “comparable to that of the L665P/F667Y mutant”.

For “F733Y: T7 RNA polymerase in which F733 was replaced with Y”, which “ability for incorporating 3′-dATP” value [1] is on record?
The value was “slightly improved”.

And the RNA synthesis activity [4]?
Its RNA synthesis activity is “slightly decreased”.

With “F782Y: T7 RNA polymerase in which F782 was replaced with Y” as the substance, how does the “ability for incorporating 3′-dATP” value [1] read?
The value was “slightly improved”.

Which RNA synthesis activity [4] does the source give for “F882Y: T7 RNA polymerase in which F882 was replaced with Y” here?
Its RNA synthesis activity is “markedly decreased”.

Which “ability for incorporating 3′-dATP” value [1] does the source give for “L665P/F667Y: mutant T7 RNA polymerase with L665P and F667Y mutations” here?
Its value is “markedly improved”.

And the “incorporation efficiency for 3′-dCTP derivatives” value [2]?
The value was “improved”.

And the “peak intensities of the sequence ladders” value [2]?
Its value is “less fluctuation in comparison with the wild type, and the peak showed stronger signals”.

And the sequence reading [3]?
The sequence reading was “possible”.

And the “peak intensity in sequencing reaction” value [3]?
Its value is “higher peak intensity with less fluctuation”.

For “Wild type: wild type T7 RNA polymerase, 883 amino acid residues, purified from E. coli harboring pT7R or commercially available [reference compound]”, which RNA synthesis activity [4] is on record?
The RNA synthesis activity was “exhibited sufficient RNA synthesis activity”.

And the sequence reading ([3]; listed as wild type T7RNA polymerase (WT))?
The sequence reading was “could not be correctly performed”.
